Results published in paper PMC10779222, “Copper(II) Complexes with 1-(Isoquinolin-3-yl)heteroalkyl-2-ones: Synthesis, Structure and Evaluation of Anticancer, Antimicrobial and Antioxidant Potential” (International Journal of Molecular Sciences, 2023).

What was measured:
A375 (melanoma) = experiment: MTT cytotoxicity assay on A375 cells; type: cell-based, human; conditions: 24 h incubation
Description: (§1) Cytotoxic activity of the investigated compounds was evaluated against T98G (glioblastoma), HepG2 (hepatoma), LS-180 (colon cancer) and A375 (melanoma) cell lines. Human normal skin fibroblasts, CCD-1059Sk (CRL-2072), were used as reference (non-cancerous) cells. All of the cell lines were obtained from American Type Culture Collection (ATCC; Manassas, VA, USA). A375, T98G and CCD-1059Sk cells were cultured in Dulbecco’s Modified Eagle’s Medium (DMEM) (Sigma Aldrich, St. Louis, MO, USA) supplemented with 10% FBS, penicillin (100 U/mL) and streptomycin (100 μg/mL). LS-180 and HepG2 cells were cultured in Eagle’s Minimum Essential Medium supplemented with 10% FBS, penicillin (100 U/mL) and streptomycin (100 μg/mL). All of the cells were maintained at 37 °C in a humidified atmosphere of 5% CO2. The compounds were dissolved in DMSO in order to obtain stock solutions. At the day of the experiment, the suspension of cells (1 × 10^5 cells/mL) was distributed onto 96-well plates at a volume of 100 μL/well. After attachment, the cells were treated with the increased concentrations of the tested compounds in medium containing 2% FBS and incubated for 24 h. Then, the medium was removed from wells, and cells were rinsed with PBS. Afterwards, 15 μL of MTT working solution (5 mg/mL in PBS) was added to each well, and the plates were incubated for 3 h. Subsequently, 100 μL of 10% SDS solution was added to each well in order to dissolve the precipitated formazan crystals. After overnight incubation at 37 °C, the absorbance of the obtained solution was measured at λ = 570 nm using a microplate reader (Epoch, BioTek Instruments, Inc., Winooski, VT, USA). At least two independent experiments were performed in triplicate. […] IC50 values of the investigated derivatives and positive control (etoposide) were calculated using the IC50 online calculator [101].

HepG2 cells = experiment: Cell cycle analysis (image cytometry, DAPI) in HepG2; type: cell-based, human; conditions: C2 at IC50 concentration
Description: (§2) Cell cycle analysis of T98G and HepG2 cells pretreated with copper(II) complex C2 (CX) (at IC50 concentration) was performed on NucleoCounter NC-3000 Image Cytometer (ChemoMetec, Lillerod, Denmark). The investigated cells were seeded on 6-well culture plates (Corning Inc., New York, NY, USA) at the density of 1 × 10^5 cells/mL and cultured in the respective medium at 37 °C in a humidified atmosphere of 5% CO2. When the cells reached approximately 80% confluence, they were treated with C2 (CX), at a concentration of IC50, for 24 h. Subsequently, the cells were detached with trypsine, suspended in 250 μL of lysis buffer (Solution 10) supplemented with DAPI (10 μg/mL) and incubated for 5 min at 37 °C. Following this, stabilization buffer (Solution 11) was added, and the obtained cell suspension was applied on NC-slide and analyzed using NucleoCounter NC-3000 Image Cytometer equipped with NucleoView NC-3000^TM software (ChemoMetec A/S, Lillerod, Denmark). Experiments were repeated three times, and the measurements in each experiment were run in duplicate.

T98G cells = experiment: Cell cycle analysis (image cytometry, DAPI) in T98G; type: cell-based, human; conditions: 24 h, C2 at IC50 concentration
Description: as §2

[1] = DPPH radical scavenging assay; conditions: ±SD; 30 min, room temperature
Description: The DPPH radical scavenging assay of samples was performed with ascorbic acid as a positive control. Briefly, 100 μL of different concentrations of the complexes, dissolved in DMSO, was mixed with 100 μL of 0.06 mM DPPH methanolic solution and incubated at room temperature in the dark for 30 min. The change in absorbance at λ = 517 nm was analyzed with the use of a 96-well microplate reader (Epoch, BioTek System, Winooski, VT, USA). The control was composed of DPPH and DMSO. DPPH inhibition was calculated according to the following equation:DPPH Inhibition (%) = [(Acontrol − Asample)/Acontrol] × 100% The radical scavenging activity of the samples was shown as the IC50 value (the concentration of the analyzed samples that caused a decrease in the non-reduced form of the DPPH radical by 50%).

[2] = test system: A375, HepG2, LS-180, T98G and CCD-1059Sk cell lines; experiment: MTT cytotoxicity assay, summary statements over several cell lines; type: cell-based; conditions: range over HepG2 and T98G
Description: as §1

LS-180 (colon cancer) = experiment: MTT cytotoxicity assay on LS-180 cells; type: cell-based, human; conditions: 24 h incubation
Description: as §1

[3] = test system: CCD-1059Sk (human normal skin fibroblasts); experiment: MTT cytotoxicity assay on non-cancerous fibroblasts; type: cell-based; conditions: 24 h incubation, non-cancerous cells
Description: as §1

[4] = ABTS radical scavenging assay; conditions: ±SD; 10 min, 30 °C
Description: The ABTS radical scavenging assay of samples (ligands or complexes) was performed with ascorbic acid as a positive control. Briefly, 30 μL of different concentrations of the samples, dissolved in DMSO, was mixed with 170 μL of ABTS solution (2 mM ABTS diammonium salt, 3.5 mM potassium persulfate) and completed with water to a final volume of 300 μL. ABTS solution with DMSO was used as a control. […] ABTS inhibition was calculated according to the following equation:ABTS Inhibition (%) = [(Acontrol − Asample)/Acontrol] × 100% The radical scavenging activity of the samples was shown as the IC50 value (the concentration of the analyzed samples that caused a decrease in the non-reduced form of the ABTS radical by 50%).

O=C1NCCN1c1cc2ccccc2cn1.O=C1NCCN1c1cc2ccccc2cn1.[Cl][Cu][Cl] [C2, Dichloro{bis[1-(Isoquinolin-3-yl)imidazolidin-2-one]}copper(II)]
IC50 ± SD, A375 (A375 (melanoma)): 28.91 ± 1.79 µg/mL
effect on cell cycle progression, HepG2 (HepG2 cells; 24 h): cell cycle arrest in the sub-G1 phase
DNA content in the sub-G1 phase (HepG2 cells; HepG2, 24 h, control cells 10%, p < 0.0001): 29%
effect on cell cycle progression, T98G (T98G cells): cell cycle arrest in the G2/M phase
IC50 DPPH [1]: 401.52 ± 2.48 µg/mL
IC50, HepG2 and T98G [2]: 5.04 to 6.97 µg/mL
IC50 ± SD, LS180 (LS-180 (colon cancer)): 5.88 ± 0.40 µg/mL
IC50 ± SD, CCD-1059-Sk [3]: 21.86 ± 1.03 µg/mL
IC50 ABTS [4]: 107.14 ± 1.42 µg/mL
